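Interpolation was linear, between the two tested concentrations surrounding the appropriate level; five concentrations were tested over 48 hours in 96-well plates. GI50 = concentration required for 50% inhibition of growth. TGI: concentration producing complete growth inhibition.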
Assays:
Test in all cases: NCI anticancer screen, dose series, 48 h
COLO 205 colon = test system: COLO 205 colon
ACHN renal = test system: ACHN renal
M14 melanoma = test system: M14 melanoma
NCI/ADR-RES ovarian = test system: NCI/ADR-RES ovarian
RXF 393 renal = test system: RXF 393 renal
SW-620 colon = test system: SW-620 colon
BT-549 breast = test system: BT-549 breast
HOP-92 NSCLC = test system: HOP-92 NSCLC
SF-295 CNS = test system: SF-295 CNS
NCI-H23 lung = test system: NCI-H23 lung
TK-10 renal = test system: TK-10 renal
HCC-2998 colon = test system: HCC-2998 colon
SK-MEL-5 melanoma = test system: SK-MEL-5 melanoma
MDA-MB-435 = test system: MDA-MB-435
A549 NSCLC = test system: A549 NSCLC
EKVX NSCLC = test system: EKVX NSCLC
MCF7 breast = test system: MCF7 breast
OVCAR-8 ovarian = test system: OVCAR-8 ovarian
RPMI-8226 leukemia = test system: RPMI-8226 leukemia
UO-31 renal = test system: UO-31 renal
IGROV1 ovarian = test system: IGROV1 ovarian
HCT-116 colon = test system: HCT-116 colon
U251 CNS = test system: U251 CNS
K-562 leukemia = test system: K-562 leukemia
CAKI-1 renal = test system: CAKI-1 renal
HOP-62 NSCLC = test system: HOP-62 NSCLC
CCRF-CEM leukemia = test system: CCRF-CEM leukemia
DU-145 prostate = test system: DU-145 prostate
SN12C renal = test system: SN12C renal
MDA-MB-231 breast = test system: MDA-MB-231 breast
SK-MEL-28 melanoma = test system: SK-MEL-28 melanoma
KM12 colon = test system: KM12 colon
HL-60(TB) leukemia = test system: HL-60(TB) leukemia
PC-3 prostate = test system: PC-3 prostate
SNB-19 CNS = test system: SNB-19 CNS
OVCAR-5 ovarian = test system: OVCAR-5 ovarian
UACC-257 melanoma = test system: UACC-257 melanoma
SF-268 CNS = test system: SF-268 CNS
SR leukemia = test system: SR leukemia
HS 578T breast = test system: HS 578T breast
OVCAR-3 ovarian = test system: OVCAR-3 ovarian
MOLT-4 leukemia = test system: MOLT-4 leukemia
OVCAR-4 ovarian = test system: OVCAR-4 ovarian
NCI-H460 lung = test system: NCI-H460 lung
SK-OV-3 ovarian = test system: SK-OV-3 ovarian
HT29 colon = test system: HT29 colon
HCT-15 colon = test system: HCT-15 colon
A498 renal = test system: A498 renal
SF-539 CNS = test system: SF-539 CNS
NCI-H226 lung = test system: NCI-H226 lung
MALME-3M melanoma = test system: MALME-3M melanoma
786-0 renal = test system: 786-0 renal
SNB-75 CNS = test system: SNB-75 CNS
SK-MEL-2 melanoma = test system: SK-MEL-2 melanoma
NCI-H522 lung = test system: NCI-H522 lung
UACC-62 melanoma = test system: UACC-62 melanoma
LOX IMVI melanoma = test system: LOX IMVI melanoma

COCC[C@H]1CCC/C=C/[C@@H]2C[C@H](O)C[C@H]2[C@H](O)/C=C/C(=O)O1
GI50 (COLO 205 colon): 22.7 nM
TGI (COLO 205 colon): 47.2 nM
GI50 (ACHN renal): 319 nM
TGI (ACHN renal): > 100000 nM
GI50 (M14 melanoma): 43.6 nM
TGI (M14 melanoma): > 100000 nM
GI50 (NCI/ADR-RES ovarian): 47.2 nM
GI50 (RXF 393 renal): 21.9 nM
TGI (RXF 393 renal): 53.9 nM
GI50 (SW-620 colon): 57.2 nM
TGI (SW-620 colon): 258 nM
GI50 (BT-549 breast): 132 nM
TGI (BT-549 breast): > 90900 nM
GI50 (HOP-92 NSCLC): 214 nM
TGI (HOP-92 NSCLC): 888 nM
GI50 (SF-295 CNS): 79.6 nM
TGI (SF-295 CNS): > 100000 nM
GI50 (NCI-H23 lung): 85.8 nM
TGI (NCI-H23 lung): 858 nM
GI50 (TK-10 renal): 180 nM
TGI (TK-10 renal): 630 nM
GI50 (HCC-2998 colon): 79 nM
GI50 (SK-MEL-5 melanoma): 17.2 nM
TGI (SK-MEL-5 melanoma): 31.9 nM
GI50 (MDA-MB-435): 59.5 nM
TGI (MDA-MB-435): > 100000 nM
GI50 (A549 NSCLC): 113 nM
TGI (A549 NSCLC): > 100000 nM
GI50 (EKVX NSCLC): 114 nM
TGI (EKVX NSCLC): > 100000 nM
GI50 (MCF7 breast): 43.7 nM
TGI (MCF7 breast): 171 nM
GI50 (OVCAR-8 ovarian): 48.3 nM
TGI (OVCAR-8 ovarian): > 100000 nM
GI50 (RPMI-8226 leukemia): 284 nM
GI50 (UO-31 renal): 56.3 nM
GI50 (IGROV1 ovarian): 331 nM
TGI (IGROV1 ovarian): > 29000 nM
GI50 (HCT-116 colon): 149 nM
TGI (HCT-116 colon): 332 nM
GI50 (U251 CNS): 166 nM
TGI (U251 CNS): > 100000 nM
GI50 (K-562 leukemia): 313 nM
TGI (K-562 leukemia): > 100000 nM
GI50 (CAKI-1 renal): 360 nM
GI50 (HOP-62 NSCLC): 94.6 nM
TGI (HOP-62 NSCLC): > 100000 nM
GI50 (CCRF-CEM leukemia): 322 nM
TGI (CCRF-CEM leukemia): > 100000 nM
GI50 (DU-145 prostate): 445 nM
TGI (DU-145 prostate): > 100000 nM
GI50 (SN12C renal): 274 nM
TGI (SN12C renal): > 100000 nM
GI50 (MDA-MB-231 breast): 131 nM
TGI (MDA-MB-231 breast): 322 nM
GI50 (SK-MEL-28 melanoma): 34.5 nM
TGI (SK-MEL-28 melanoma): 153 nM
GI50 (KM12 colon): 34 nM
TGI (KM12 colon): 118 nM
GI50 (HL-60(TB) leukemia): 273 nM
TGI (HL-60(TB) leukemia): 870 nM
GI50 (PC-3 prostate): 193 nM
TGI (PC-3 prostate): > 100000 nM
GI50 (SNB-19 CNS): 191 nM
TGI (SNB-19 CNS): > 100000 nM
GI50 (OVCAR-5 ovarian): 247 nM
TGI (OVCAR-5 ovarian): > 100000 nM
GI50 (UACC-257 melanoma): 35 nM
GI50 (SF-268 CNS): 48.8 nM
TGI (SF-268 CNS): > 100000 nM
GI50 (SR leukemia): 141 nM
GI50 (HS 578T breast): 50.6 nM
TGI (HS 578T breast): > 100000 nM
GI50 (OVCAR-3 ovarian): 50.5 nM
TGI (OVCAR-3 ovarian): 273 nM
GI50 (MOLT-4 leukemia): 353 nM
TGI (MOLT-4 leukemia): > 100000 nM
GI50 (OVCAR-4 ovarian): 52.8 nM
GI50 (NCI-H460 lung): 390 nM
TGI (NCI-H460 lung): > 100000 nM
GI50 (SK-OV-3 ovarian): 72.5 nM
TGI (SK-OV-3 ovarian): > 100000 nM
GI50 (HT29 colon): 35.1 nM
TGI (HT29 colon): 227 nM
GI50 (HCT-15 colon): 314 nM
TGI (HCT-15 colon): > 100000 nM
GI50 (A498 renal): 23.1 nM
TGI (A498 renal): 107 nM
GI50 (SF-539 CNS): 213 nM
TGI (SF-539 CNS): > 100000 nM
GI50 (NCI-H226 lung): 29.3 nM
TGI (NCI-H226 lung): 121 nM
GI50 (MALME-3M melanoma): 34.4 nM
TGI (MALME-3M melanoma): 228 nM
GI50 (786-0 renal): 23.4 nM
TGI (786-0 renal): 54 nM
GI50 (SNB-75 CNS): 42.3 nM
TGI (SNB-75 CNS): > 100000 nM
GI50 (SK-MEL-2 melanoma): 177 nM
TGI (SK-MEL-2 melanoma): 636 nM
GI50 (NCI-H522 lung): 210 nM
TGI (NCI-H522 lung): 557 nM
GI50 (UACC-62 melanoma): 42.5 nM
TGI (UACC-62 melanoma): > 100000 nM
GI50 (LOX IMVI melanoma): 43.4 nM
TGI (LOX IMVI melanoma): 179 nM
